Source: PubChem BioAssay (NCI)
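96-well plates; 48 h exposure; 5 concentrations. Endpoints by linear interpolation between flanking doses. Not reached: highest tested concentration assigned. GI50 = concentration required for 50% inhibition of growth. TGI denotes the concentration required for complete inhibition of growth.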

Key:
Assay in all cases: inhibition of tumour cell growth, NCI panel, 48 h
SNB-75 CNS = tested on: SNB-75 CNS
DU-145 prostate = tested on: DU-145 prostate
ACHN renal = tested on: ACHN renal
MDA-MB-231 breast = tested on: MDA-MB-231 breast
SN12C renal = tested on: SN12C renal
HS 578T breast = tested on: HS 578T breast
HCT-15 colon = tested on: HCT-15 colon
NCI-H23 lung = tested on: NCI-H23 lung
SK-MEL-28 melanoma = tested on: SK-MEL-28 melanoma
UACC-257 melanoma = tested on: UACC-257 melanoma
NCI-H460 lung = tested on: NCI-H460 lung
CCRF-CEM leukemia = tested on: CCRF-CEM leukemia
LOX IMVI melanoma = tested on: LOX IMVI melanoma
NCI/ADR-RES ovarian = tested on: NCI/ADR-RES ovarian
SK-OV-3 ovarian = tested on: SK-OV-3 ovarian
SF-268 CNS = tested on: SF-268 CNS
HOP-62 NSCLC = tested on: HOP-62 NSCLC
SK-MEL-2 melanoma = tested on: SK-MEL-2 melanoma
SW-620 colon = tested on: SW-620 colon
OVCAR-3 ovarian = tested on: OVCAR-3 ovarian
HCC-2998 colon = tested on: HCC-2998 colon
HCT-116 colon = tested on: HCT-116 colon
HT29 colon = tested on: HT29 colon
RXF 393 renal = tested on: RXF 393 renal
SF-539 CNS = tested on: SF-539 CNS
UACC-62 melanoma = tested on: UACC-62 melanoma
SR leukemia = tested on: SR leukemia
MCF7 breast = tested on: MCF7 breast
IGROV1 ovarian = tested on: IGROV1 ovarian
MDA-MB-435 = tested on: MDA-MB-435
SF-295 CNS = tested on: SF-295 CNS
COLO 205 colon = tested on: COLO 205 colon
T-47D breast = tested on: T-47D breast
M14 melanoma = tested on: M14 melanoma
EKVX NSCLC = tested on: EKVX NSCLC
SNB-19 CNS = tested on: SNB-19 CNS
OVCAR-4 ovarian = tested on: OVCAR-4 ovarian
TK-10 renal = tested on: TK-10 renal
PC-3 prostate = tested on: PC-3 prostate
MOLT-4 leukemia = tested on: MOLT-4 leukemia
RPMI-8226 leukemia = tested on: RPMI-8226 leukemia
A549 NSCLC = tested on: A549 NSCLC
U251 CNS = tested on: U251 CNS
SK-MEL-5 melanoma = tested on: SK-MEL-5 melanoma
OVCAR-5 ovarian = tested on: OVCAR-5 ovarian
786-0 renal = tested on: 786-0 renal
OVCAR-8 ovarian = tested on: OVCAR-8 ovarian
KM12 colon = tested on: KM12 colon
K-562 leukemia = tested on: K-562 leukemia
HL-60(TB) leukemia = tested on: HL-60(TB) leukemia
HOP-92 NSCLC = tested on: HOP-92 NSCLC
A498 renal = tested on: A498 renal
BT-549 breast = tested on: BT-549 breast
MALME-3M melanoma = tested on: MALME-3M melanoma
UO-31 renal = tested on: UO-31 renal
NCI-H522 lung = tested on: NCI-H522 lung
NCI-H226 lung = tested on: NCI-H226 lung

COCCOCCOCc1n(Cc2ccc3ccccc3n2)c2ccccc2[n+]1Cc1ccc2ccccc2c1
GI50 (SNB-75 CNS): 0.312 µM | TGI (SNB-75 CNS): 1.35 µM | GI50 (DU-145 prostate): 0.593 µM | TGI (DU-145 prostate): 12.6 µM | GI50 (ACHN renal): 2.04 µM | TGI (ACHN renal): 5.68 µM | GI50 (MDA-MB-231 breast): 0.356 µM | TGI (MDA-MB-231 breast): 1.45 µM | GI50 (SN12C renal): 0.362 µM | TGI (SN12C renal): 1.41 µM | GI50 (HS 578T breast): 0.964 µM | TGI (HS 578T breast): 3.66 µM | GI50 (HCT-15 colon): 3.48 µM | TGI (HCT-15 colon): 13.6 µM | GI50 (NCI-H23 lung): 0.386 µM | TGI (NCI-H23 lung): 10.3 µM | GI50 (SK-MEL-28 melanoma): 0.484 µM | TGI (SK-MEL-28 melanoma): 1.88 µM | GI50 (UACC-257 melanoma): 0.293 µM | TGI (UACC-257 melanoma): 0.877 µM | GI50 (NCI-H460 lung): 0.424 µM | TGI (NCI-H460 lung): 1.56 µM | GI50 (CCRF-CEM leukemia): 0.532 µM | TGI (CCRF-CEM leukemia): 2.45 µM | GI50 (LOX IMVI melanoma): 0.333 µM | TGI (LOX IMVI melanoma): 1.24 µM | GI50 (NCI/ADR-RES ovarian): 23.4 µM | TGI (NCI/ADR-RES ovarian): > 100 µM | GI50 (SK-OV-3 ovarian): 0.501 µM | TGI (SK-OV-3 ovarian): 2.68 µM | GI50 (SF-268 CNS): 0.464 µM | TGI (SF-268 CNS): 1.85 µM | GI50 (HOP-62 NSCLC): 0.468 µM | TGI (HOP-62 NSCLC): 2.52 µM | GI50 (SK-MEL-2 melanoma): 0.376 µM | TGI (SK-MEL-2 melanoma): 1.56 µM | GI50 (SW-620 colon): 0.769 µM | TGI (SW-620 colon): 5.37 µM | GI50 (OVCAR-3 ovarian): 0.358 µM | TGI (OVCAR-3 ovarian): 1.52 µM | GI50 (HCC-2998 colon): 0.468 µM | TGI (HCC-2998 colon): 2.04 µM | GI50 (HCT-116 colon): 0.402 µM | TGI (HCT-116 colon): 2.06 µM | GI50 (HT29 colon): 0.292 µM | TGI (HT29 colon): 1.43 µM | GI50 (RXF 393 renal): 1.68 µM | TGI (RXF 393 renal): 4.46 µM | GI50 (SF-539 CNS): 0.338 µM | TGI (SF-539 CNS): 1.4 µM | GI50 (UACC-62 melanoma): 0.364 µM | TGI (UACC-62 melanoma): 1.36 µM | GI50 (SR leukemia): 0.273 µM | TGI (SR leukemia): 1.07 µM | GI50 (MCF7 breast): 0.317 µM | TGI (MCF7 breast): 1.34 µM | GI50 (IGROV1 ovarian): 0.351 µM | TGI (IGROV1 ovarian): 1.66 µM | GI50 (MDA-MB-435): 0.339 µM | TGI (MDA-MB-435): 1.31 µM | GI50 (SF-295 CNS): 0.804 µM | TGI (SF-295 CNS): 2.58 µM | GI50 (COLO 205 colon): 0.281 µM | TGI (COLO 205 colon): 0.876 µM | GI50 (T-47D breast): 0.293 µM | TGI (T-47D breast): 2.08 µM | GI50 (M14 melanoma): 0.414 µM | TGI (M14 melanoma): 1.94 µM | GI50 (EKVX NSCLC): 1.27 µM | TGI (EKVX NSCLC): 10.8 µM | GI50 (SNB-19 CNS): 0.441 µM | TGI (SNB-19 CNS): 1.62 µM | GI50 (OVCAR-4 ovarian): 0.385 µM | TGI (OVCAR-4 ovarian): 7.42 µM | GI50 (TK-10 renal): 1.04 µM | TGI (TK-10 renal): 2.42 µM | GI50 (PC-3 prostate): 0.352 µM | TGI (PC-3 prostate): 2.29 µM | GI50 (MOLT-4 leukemia): 0.47 µM | TGI (MOLT-4 leukemia): 2.52 µM | GI50 (RPMI-8226 leukemia): 0.185 µM | TGI (RPMI-8226 leukemia): 1.33 µM | GI50 (A549 NSCLC): 0.748 µM | TGI (A549 NSCLC): 10.6 µM | GI50 (U251 CNS): 0.328 µM | TGI (U251 CNS): 1.26 µM | GI50 (SK-MEL-5 melanoma): 0.357 µM | TGI (SK-MEL-5 melanoma): 1.16 µM | GI50 (OVCAR-5 ovarian): 0.557 µM | TGI (OVCAR-5 ovarian): 7.43 µM | GI50 (786-0 renal): 1.53 µM | TGI (786-0 renal): 3.04 µM | GI50 (OVCAR-8 ovarian): 0.498 µM | TGI (OVCAR-8 ovarian): 1.92 µM | GI50 (KM12 colon): 0.388 µM | TGI (KM12 colon): 1.63 µM | GI50 (K-562 leukemia): 0.291 µM | TGI (K-562 leukemia): 1.7 µM | GI50 (HL-60(TB) leukemia): 0.187 µM | TGI (HL-60(TB) leukemia): 0.476 µM | GI50 (HOP-92 NSCLC): 0.207 µM | TGI (HOP-92 NSCLC): 0.718 µM | GI50 (A498 renal): 0.627 µM | TGI (A498 renal): 2.83 µM | GI50 (BT-549 breast): 0.277 µM | TGI (BT-549 breast): 0.977 µM | GI50 (MALME-3M melanoma): 0.275 µM | TGI (MALME-3M melanoma): 0.9 µM | GI50 (UO-31 renal): 2.29 µM | TGI (UO-31 renal): 11.2 µM | GI50 (NCI-H522 lung): 0.248 µM | TGI (NCI-H522 lung): 0.936 µM | GI50 (NCI-H226 lung): 0.875 µM | TGI (NCI-H226 lung): 4.83 µM
